In ChEMBL document CHEMBL3822454, “On the vasoprotective mechanisms underlying novel β-phosphorylated nitrones: Focus on free radical characterization, scavenging and NO-donation in a biological model of oxidative stress” (Eur J Med Chem, 2016):
Calls of active or inactive are those of the source. No cut-off for these calls is given here.

Tests used:
[1] = Antioxidant activity assessed as DPPH scavenging activity measured after 3 mins by spectrophotometric method; type: physicochemical
[2] = Antioxidant activity assessed as AAPH free radical scavenging activity measured as trolox equivalent by TRAP assay; type: physicochemical
[3] = Antioxidant activity assessed as inhibition of […]-xanthine oxidase system-mediated superoxide formation measured over 7 mins by lucigenin-based chemiluminescence analysis; type: physicochemical
A549 [4] = assay: Cytotoxicity against human A549 cells assessed as reduction in cell viability measured after 48 hrs by FMCA assay; type: cell-based; details: A549, 48 h
A549 [5] = assay: Cytotoxicity against human A549 cells assessed as reduction in cell viability measured after 48 hrs by luminescence-based ATP assay; details: A549, 48 h
A549 [6] = assay: Cytotoxicity against human A549 cells assessed as reduction in cell viability measured after 48 hrs by MTT assay; type: cell-based; details: A549, 48 h
[7] = Cytotoxicity against BAEC assessed as reduction in cell viability measured after 24 hrs by MTT assay; parameters: species or system Bos taurus; details: cattle
[8] = Cytotoxicity against BAECs assessed as decrease in total intracellular LDH content at 15 mM measured after 3 hrs by LDH assay relative to vehicle control; type: cell-based, Bos taurus; parameters: scale not given: the % may be the effect or the level left; details: cattle, baec, 15000 µM
Aorta [9] = assay: Potentiation of SNP-induced vasorelaxant activity in Sprague-Dawley rat endothelium-intact aortic rings assessed as reduction in L-phenylephrine hydrochloride-induced contraction at 200 uM relative to SNP; type: functional
Aorta [10] = assay: Protection against NADPH-induced superoxide-mediated tissue damage in Sprague-Dawley rat endothelium-intact aortic rings assessed as inhibition of protein carbonyl formation at 200 uM pre-incubated for 30 mins in presence of DTC prior to NADPH addition measured after 60 mins using 7-hydrazino-4-nitrobenzo-2,1,3-oxadiazole by fluorimetric analysis; type: functional
Aorta [11] = assay: (§1) Protection against NADPH-induced superoxide-mediated tissue damage in Sprague-Dawley rat endothelium-intact aortic rings assessed as decomposition of methyl radical adduct preincubated for 30 mins at 200 uM in presence of DTC prior to NADPH addition after 60 mins followed by renewal of media with NADPH-compound mixture measured after 4 days by EPR spectroscopy relative to control; type: functional
Aorta [12] = assay: Protection against superoxide-mediated tissue damage in Sprague-Dawley rat endothelium-intact aortic rings assessed as methyl radical adduct formation preincubated for 30 mins at 200 uM in presence of DTC measured after 4 days by EPR spectroscopy; type: functional
[13] = Cytotoxicity against BAEC assessed as decrease in total intracellular LDH content at 15 mM measured after 1 hr by LDH assay relative to vehicle-treated control; type: cell-based, Bos taurus; parameters: scale not given: the % may be the effect or the level left; details: cattle, 15000 µM
Aorta [14] = assay: Toxicity in Sprague-Dawley rat endothelium-intact aortic rings at 15 mM measured after 20 mins; details: 15000 µM
Aorta [15] = assay: as §1, with “as” for “as decomposition of”, “formation pre-incubated” for “preincubated”, “addition measured” for “addition”, “20 mins in presence of DPI” for “4 days”, “spectroscopy” for “spectroscopy relative to control”; type: functional
[16] = target: Xanthine dehydrogenase/oxidase (Homo sapiens, UniProt P47989); assay: Inhibition of xanthine oxidase (unknown origin) using xanthine as substrate assessed as inhibition of uric acid formation at 1 to 100 uM after 30 mins by spectrophotometric method; details: 0.5 h
[17] = Induction of nitric oxide release in water using Fe2+-MGD2 as nitric oxide trap at pH 6.56 measured 70 mins post UV-photolysis in dark condition by EPR spectroscopy; type: physicochemical; details: buffer, pH 6.56, 70 min
Aorta [18] = assay: (§2) Vasoprotective activity against oxidative stress-induced impairment of ACh-stimulated vasorelaxation in Sprague-Dawley rat endothelium-intact aortic rings assessed as reduction in L-phenylephrine hydrochloride-induced contraction preincubated for 10 to 20 mins in presence of xanthine-xanthine oxidase system prior to L-phenylephrine hydrochloride addition; type: functional
Aorta [19] = assay: as §2, with “system at 200 uM” for “system”, “addition relative to ACh” for “addition”; type: functional

Xanthine dehydrogenase/oxidase, sequence (P47989 whole entry): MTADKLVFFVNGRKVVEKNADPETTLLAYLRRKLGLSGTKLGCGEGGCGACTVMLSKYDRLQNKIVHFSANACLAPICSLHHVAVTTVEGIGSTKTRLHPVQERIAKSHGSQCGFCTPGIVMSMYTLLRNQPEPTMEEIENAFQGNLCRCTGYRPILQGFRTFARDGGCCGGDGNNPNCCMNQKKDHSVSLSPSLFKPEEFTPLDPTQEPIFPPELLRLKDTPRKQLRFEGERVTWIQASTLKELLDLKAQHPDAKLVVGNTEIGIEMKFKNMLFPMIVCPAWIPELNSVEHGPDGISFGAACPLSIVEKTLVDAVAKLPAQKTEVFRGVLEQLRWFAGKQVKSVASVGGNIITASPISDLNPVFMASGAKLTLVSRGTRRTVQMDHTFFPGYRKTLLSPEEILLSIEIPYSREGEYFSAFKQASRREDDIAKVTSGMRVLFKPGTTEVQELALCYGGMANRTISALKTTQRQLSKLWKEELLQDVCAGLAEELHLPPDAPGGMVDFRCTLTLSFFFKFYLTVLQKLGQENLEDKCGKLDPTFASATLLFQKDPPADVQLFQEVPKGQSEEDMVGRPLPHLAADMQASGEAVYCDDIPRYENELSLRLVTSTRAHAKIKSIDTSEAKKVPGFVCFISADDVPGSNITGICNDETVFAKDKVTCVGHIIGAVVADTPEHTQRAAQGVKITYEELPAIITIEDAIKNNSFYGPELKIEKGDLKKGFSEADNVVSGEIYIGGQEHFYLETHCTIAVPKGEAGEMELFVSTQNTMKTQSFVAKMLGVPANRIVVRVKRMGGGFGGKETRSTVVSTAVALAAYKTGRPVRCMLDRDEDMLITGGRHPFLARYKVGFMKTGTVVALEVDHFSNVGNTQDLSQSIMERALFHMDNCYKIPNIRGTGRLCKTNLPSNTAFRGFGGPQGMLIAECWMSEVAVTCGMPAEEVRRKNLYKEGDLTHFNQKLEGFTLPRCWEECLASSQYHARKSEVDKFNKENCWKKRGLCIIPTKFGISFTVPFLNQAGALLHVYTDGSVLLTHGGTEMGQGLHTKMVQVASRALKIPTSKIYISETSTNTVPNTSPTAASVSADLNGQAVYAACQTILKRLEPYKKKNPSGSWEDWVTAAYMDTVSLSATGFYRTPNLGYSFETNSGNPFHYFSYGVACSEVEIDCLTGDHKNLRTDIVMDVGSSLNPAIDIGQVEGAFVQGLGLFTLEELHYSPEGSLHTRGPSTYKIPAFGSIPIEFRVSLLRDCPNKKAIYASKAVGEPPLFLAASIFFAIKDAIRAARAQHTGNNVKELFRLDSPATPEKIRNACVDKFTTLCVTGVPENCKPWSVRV

SMILES	EC50 [1] [µM]	Activity [2] [equiv]	IC50 [3] [µM]	IC50 (A549 [4]) [µM]	IC50 (A549 [5]) [µM]	IC50 (A549 [6]) [µM]	IC10 [7] [µM]	Activity [8] [%]	Rmax (Aorta [9]) [%]	inhibition (Aorta [10])	Activity (Aorta [11]) [%]	Activity (Aorta [12])	Activity [13] [%]	Activity (Aorta [14])	Activity (Aorta [15])	inhibition (INH) [16]	Activity [17]	EC50 (Aorta [18]) [µM]	Rmax (Aorta [19]) [%]
O=c1c(O)c(-c2ccc(O)c(O)c2)oc2cc(O)cc(O)c12 [QUERCETIN]	13	6.28	0.5																
O=C(O)/C=C/c1ccc(O)c(O)c1 [CAFFEIC ACID]	17	2.73	0.1	500	700	700	200												
CCOP(=O)(OCC)C(C)(C)/[N+]([O-])=C/c1ccc(O)cc1	> 1000	0.65	60.8	10500	12400	13000	1600	18	99	Active	< 5	inactive	< 10	Non-toxic	inactive	Not Active			
CCOP(=O)(OCC)C(C)(C)/[N+]([O-])=C/c1c(C)cccc1C	> 1000	0.02	350	4700	5300	4400	500		105	Active				Non-toxic		Not Active	Active		
CCOP(=O)(OCC)C(C)(C)/[N+]([O-])=C/c1ccccc1O	> 1000	0.25	33.5	8200	9300	9000	1400	21	99				< 10	Non-toxic		Not Active			
CCOP(=O)(OCC)C(C)(C)/[N+]([O-])=C/c1ccc(NC(C)=O)cc1	> 1000	0.02	26.3													Not Active			
CCOP(=O)(OCC)C(C)(C)/[N+]([O-])=C/c1ccc(O)c(OC)c1	254	1.91	28.6	6400	4300	3900	700	23	100	Active	< 5	inactive	< 10	Non-toxic	inactive	Not Active		0.0537	86
CCOP(=O)(OCC)C(C)(C)/[N+]([O-])=C/c1cccc([N+](=O)[O-])c1	> 1000	0.02	52.3										< 10	Non-toxic		Not Active			
CCOP(=O)(OCC)C(C)NC(C)(C)C (stereo not drawn)			> 40000																
CCOP(=O)(OCC)C(C)(C)/[N+]([O-])=C/c1ccc(C(=O)O)cc1	> 1000	0.02	4.1	7900	8200	7300	1300									Not Active			
CCOP(=O)(OCC)C(C)(C)/[N+]([O-])=C/c1ccc(O)c(O)c1	22	2.22	0.2	1900	1900	1300	500	28	103	Active	< 5	inactive	< 10	Non-toxic	inactive	Not Active		0.0407	93
CCOP(=O)(OCC)C(C)(C)/[N+]([O-])=C/c1ccccc1C(F)(F)F	> 1000	0.02	4.2	2200	2700	4200	400		104					Non-toxic		Not Active	Active		
COc1cc(/C=C/C(=O)O)cc(OC)c1O [SINAPINATE]	35	1.64	22.4	4600	5700	4900	1200												
CCOC(=O)c1ccc(/C=[N+](\[O-])C(C)(C)P(=O)(OCC)OCC)cc1	> 1000	0.16	6.8	4500	3600	3500	400									Not Active			
COc1cc(/C=C/C(=O)O)ccc1O [FERULATE]	61	2.16	34.9	2600	3200	3100	800												
CCOP(=O)(OCC)C(C)(C)/[N+]([O-])=C/c1ccc([N+](=O)[O-])cc1	> 1000	0.02	9.3	1100	1000	1200	< 100	53	101				< 10	Non-toxic		Not Active			
CCOP(=O)(OCC)C(C)(C)/[N+]([O-])=C/c1ccccc1[N+](=O)[O-]	> 1000	0.02	30	2200	1400	1300	< 100	54	100				< 10	Non-toxic		Not Active	Active		
CCOP(=O)(OCC)C(C)(C)/[N+]([O-])=C/c1cc(O)c(O)c(O)c1	19	1.46	0.9	600	600	700	200	29	104	Active	< 5	inactive	< 10	Non-toxic	inactive	Not Active		0.0282	93
CCOP(=O)(OCC)C(C)(C)/[N+]([O-])=C/c1cc(O)cc(O)c1	> 1000	0.7	187	4900	7000	7900	600	23	98	Active	< 5	inactive	< 10	Non-toxic	inactive	Not Active			
CCOP(=O)(OCC)C(C)(C)/[N+]([O-])=C/c1ccc(O)cc1O	> 1000	1.61	43.3										< 10	Non-toxic		Not Active			
CCOP(=O)(OCC)C(C)(C)/[N+]([O-])=C/c1cccc(O)c1	> 1000	0.1	123	7600	8300	7500	800	26	99	Active	6	inactive	< 10	Non-toxic	inactive	Not Active			
O=C(O)c1cc(O)c(O)c(O)c1 [GALLIC ACID]	7	1.18	0.7	400	400	400	< 100												
Cc1c(C)c2c(c(C)c1O)CCC(C)(C(=O)O)O2 (stereo not drawn) [TROLOX]	20		13.3																
